Source: PMC10096391, “Discovery of N,4-Di(1H-pyrazol-4-yl)pyrimidin-2-amine-Derived CDK2 Inhibitors as Potential Anticancer Agents: Design, Synthesis, and Evaluation” (Molecules, 2023)

Assays:
[1] = tested on: OAW28 ovarian cancer cells; assay: Cell viability assay (MTT/resazurin), OAW28; assay type: cell-based; settings: Homo sapiens, OAW-28, read-out: Antiproliferative Activity, GI50
Description: (§1) Cancer cell lines derived from leukemia (MV4-11 and U937), breast (MCF7 (Rb-positive) and MDA-MB-231(Rb-negative)), and ovarian (A2780, OVCAR5, OAW28, OV90, Cov318, and Cov504) cancers, and glioblastoma (U87, T98G and U251) were acquired from the cell bank at Drug Discovery and Development, University of South Australia, and cultured according to the American Type Culture Collection (ATCC) recommendation in Roswell Park Memorial Institute (RPMI)-1640, Dulbecco’s Modified Eagle’s Medium (DMEM), or Minimum Essential Media (MEM), with 10% fetal bovine serum (Sigma-Aldrich, Castle Hill, NSW, Australia) within a humidified incubator at 37 °C in the presence of 5% CO2.
(§2) The MTT (Life Technologies, Mulgrave, VIC, Australia) and resazurin (Sigma-Aldrich) assays were used to determine the antiproliferative activities of the compounds initially at 1 µM against the cancer cell lines stated above.

U937 leukemia cells = assay: Cell viability assay (MTT/resazurin), U937; assay type: cell-based; settings: Homo sapiens, U-937, read-out: Antiproliferative Activity, GI50
Description: as §1, §2

OVCAR5 cells [2] = assay: Western blot analysis of OVCAR5 cells; assay type: cell-based
Description: Western blot analysis of the compounds was carried out as previously reported. The antibodies were purchased from Cell Signaling Technology (Danvers, MA, USA).

[3] = tested on: A2780 ovarian cancer cells; assay: 72 h MTT antiproliferative assay, A2780; assay type: cell-based; settings: Homo sapiens, A2780; 72 h MTT
Description: as §1, §2

CDK2/cyclin E (CDK2E) = CDK2/cyclin E (CDK2E) (Homo sapiens, UniProt P24941); assay: ADP-Glo kinase assay, CDK2/cyclin E; assay type: biochemical; settings: apparent Ki from IC50, ADP-Glo
Description: The luminescent ADP-Glo™ assay, which measures the amount of ADP formed in a kinase reaction as described previously, was used to determine the kinase inhibition profile of the compounds. […] Ki values were calculated from their corresponding IC50 values (the concentrations of inhibitors that inhibit the kinase activity by 50%) and the Michaelis–Menten constant (Km) of ATP for each kinase using the Cheng–Prusoff equation as previously stated. In brief, 1 μL of each concentration of the test compounds was added to the respective wells, and to it were added 1 μL of the kinases and their respective substrates, diluted to the desired concentration in kinase reaction buffer ([…] tris base pH 7.5, 20 mM MgCl2, 0.4 µM dithiothreitol, and 0.1 mg/mL bovine serum albumin), and the pH was adjusted by adding 1 μL of a two-fold diluted kinase reaction buffer. To initiate the kinase activity, 1 μL of ATP solution (the concentration varies depending on the type of kinase under investigation) was added to each well, and the mixture was incubated at room temperature (20 to 22 °C) for 30–60 min depending on the kinase being tested. The reaction was then halted, 5 μL of the ADP-Glo reagent was added to each well (removing any unreacted ATP), and it was incubated at room temperature for 40 min. Then, to each well, 10 μL of the kinase detection reagent containing luciferin was added, which was incubated once more at room temperature in the dark for 30 min and the luminescence was measured by an EnVision® multi-label plate reader with an integration time of 1.5 s per well. Positive controls (the wells without the inhibitor) and negative or blank controls (the wells without the inhibitor and the enzyme, but with 1 × kinase reaction buffer) were also determined in 2.5% DMSO.
The percentage of kinase inhibition was determined using the following equation: % Residual kinase activity=Luminescence in the presence of inhibitor−Luminescence of blank control/Luminescence in the absence of inhibitor−Luminescence of blank control×100%%kinase inhbition=100%−%Residual kinase activity
Km is defined as the concentration of ATP or the substrate required to produce 50% of the maximal reaction rate in the kinase reaction. Therefore, since we used the concentration of ATP and the substrate at their Km values, Ki simply equals IC50/2 assuming these inhibitors are ATP-competitive based on the Cheng–Prusoff equation: Ki = IC50/(1 + ([ATP]/Km(ATP))) where [ATP] is the ATP concentration used for the IC50 determination and Km(ATP) for each kinase was determined experimentally.

OV90 cells = assay: Colony formation (crystal violet), OV90; assay type: cell-based; settings: OV90, 10 days
Description: Briefly, ovarian cancer cells (i.e., A2780, OVCAR5, and OV90) seeded in six-well plates were adhered for 6 h and treated with 15. The medium that contained the compound was then changed every 72 h. Ten days after treatment, the cells were washed with PBS, fixed, and stained with crystal violet staining solution (0.05% crystal violet, 1% formaldehyde, 1% PBS, and 1% ethanol), and colonies were quantified using ImageJ software (National Institute of Health, Maryland, USA), with data presented as percentages of the control cells.

[4] = tested on: Cov318 ovarian cancer cells; assay: Cell viability assay (MTT/resazurin), Cov318; assay type: cell-based; settings: read-out: Antiproliferative Activity, GI50
Description: as §1, §2

MV4-11 leukemia cells = assay: Cell viability assay (MTT/resazurin), MV4-11; assay type: cell-based; settings: Homo sapiens, read-out: Antiproliferative Activity, GI50
Description: as §1, §2

A2780 cells = assay: Cell cycle analysis by flow cytometry, A2780; assay type: cell-based; settings: A2780, 2 µM, 48 h
Description: (§3) The effect of the compounds on cell cycle distribution was evaluated following a previously reported method. Briefly, six-well plates (Sigma-Aldrich, NSW, Australia) were seeded with about 1–2 × 10^5 cells/well in 2 mL growth medium, incubated at 37 °C and 5% CO2 overnight, and treated with various concentrations of the test compounds and incubated for 48 h. The wells were collected by trypsinization, transferred into fluorescence-activating cell sorting (FACS) tubes, washed with 1 × phosphate-buffered saline (1 × PBS) twice, fixed in 70% (v/v) ice-cold ethanol for 15 min, and centrifuged at 300× g for 5 min. The cell pellets were then collected, stained with 200 µL of the cell cycle solution (comprising 50.0 μg/mL PI, 0.1 mg/mL RNase A, and 0.05% Triton X-100), and incubated for 1.5 h at room temperature in the dark. Finally, the DNA content was determined by a flow cytometer (CytoFLEX) and analyzed by CytExpert 2.1 software (Beckman Coulter, Brea, CA, USA).

U251 glioblastoma cells = assay: Cell viability assay (MTT/resazurin), U251; assay type: cell-based; settings: Homo sapiens, U-251, read-out: Antiproliferative Activity, GI50
Description: as §1, §2

[5] = tested on: MDA-MB-231 breast cancer cells; assay: Cell viability assay (MTT/resazurin), MDA-MB-231; assay type: cell-based; settings: Homo sapiens, read-out: Antiproliferative Activity, GI50
Description: as §1, §2

OVCAR5 cells [6] = assay: Cell cycle analysis by flow cytometry, OVCAR5; assay type: cell-based; settings: 48 h
Description: as §3

Cn1cc(-c2nc(Nc3cn[nH]c3)ncc2Cl)cn1 [Compound 15, 5-Chloro-4-(1-methyl-1H-pyrazol-4-yl)-N-(1H-pyrazol-4-yl)pyrimidin-2-amine]
GI50 [1]: 534 nM
GI50 (U937 leukemia cells): 186 nM
p-FAK(Ser732) level (CDK5 kinase activity in cells) (OVCAR5 cells [2]; OVCAR5, 2 µM, 48 h): completely abolished
p-RNAPol-II(Ser2) level (CDK9 kinase activity in cells) (OVCAR5 cells [2]; OVCAR5, 2 µM, 48 h): completely abolished
p-Rb(Thr821) level (CDK2 kinase activity in cells) (OVCAR5 cells [2]; OVCAR5, 2 µM, 48 h): completely abolished
anti-apoptotic protein MCL1 (OVCAR5 cells [2]; OVCAR5, 48 h): downregulation
caspase-3 (OVCAR5 cells [2]; OVCAR5, 48 h): cleavage
phosphorylated histone H2AX (p-H2AX), DNA damage marker (OVCAR5 cells [2]; OVCAR5, 48 h): appearance
GI50 [3]: 158 nM
Ki (CDK2/cyclin E (CDK2E)): 5 nM
effect on colony formation (OV90 cells; 0.5 µM): partial inhibition
effect on colony formation (OV90 cells; 15 at 0.5 and 2 µM, CYC065 at 0.5 µM): inhibited
GI50 [4]: 488 nM
GI50 (MV4-11 leukemia cells): 127 nM
S-phase cells (A2780 cells): 26%
GI50 (U251 glioblastoma cells): 350 nM
GI50 [5]: 458 nM
increment in the subpopulation of G2/M cells compared to the vehicle control (OVCAR5 cells [6]; OVCAR5, 0.5 µM): 39%
G2/M cells (OVCAR5 cells [6]; OVCAR5, 2 µM): 53%
S-phase cells (OVCAR5 cells [6]; OVCAR5, 2 µM): 26%
